Consider six molecules from patent US4252798A, “Reversible male contraception” (The Upjohn Company, priority 1980, dated 1981).

Assay [1] relates to healthy male mammal post-puberty (man). In words: Male contraception by oral administration to man. Type of assay: in vivo. As for the experimental part:
A 60 kg. Person who is the admitted parent of 2 children is given one 50 mg. tablet daily of 17β-methoxy-2α-methyl-5α-androstan-3-one.
A 60 kg. Person is treated daily with one teaspoonful of a suspension of 2α,3α-epithio-17β-ethoxy-5α-androstane (100 mg./ml.).

Assay [2] has as its system rat ABP (androgen binding protein) and rat AR (androgen receptor). In words: ABP/AR ratio: relative affinity (vs DHT) for rat ABP and rat AR. The settings on record: ratio of relative affinity for rat ABP to relative affinity for rat AR, each compared to DHT. From the text: The present invention includes steroids which have a high affinity for rat ABP (androgen binding protein) as compared to DHT (dihydrotestosterone, 17β-hydroxy-5α-androst-3-one). N. A. Musto et al. in Endo. Res. Comm. 4, 147 (1977) have described a procedure for isolation and purification of rat ABP. Utilizing the purified rat ABP, and following the procedure of E. M. Ritzen et al. described in J. Biol. Chem. 249, 6597 (1974), the relative affinity of various non-estrogenic-type steroids can readily be determined. The dissociation constant (Kd) measures the affinity of a compound for a protein. The dissociation constant for DHT and the non-estrogenic-type steroids is determined. […]
E. M. Wilson and F. S. French in the J. Biol. Chem. 251, 5620 (1976) have described a procedure for isolation and partial purification of rat AR. Utilizing the rat AR and following the procedure of G. Verhoeven et al. described in Steroids 26, 149 (1975) the relative affinity of various steroids can readily be determined. The dissociation constant for DHT and non-estrogenic steroids is determined. […] D. J. Tindall, et al., in the International Journal of Andrology, Supplement 2 (1978) set forth the preferred method for determining the relative affinities of a steroid for ABP and AR from which the ABP/AR ratio can be calculated. […]

In the next assay the test system is tom. The assay can be described thus: Male contraception by daily treat given to tom. The assay is classed as in vivo, tom (cat). As for the experimental part: A 6 kg. tom who has previously sired offspring is given a treat daily containing 20 mg. of 17β-methoxy-2α-methyl-5α-androstan-3-one. […] Eighty days following cessation of administration of the treat, the tom, upon sexual intercourse, fertilizes the same ovulating female at the time of her estrus.

The next assay relates to men. The following applies: cited from earlier work.
Another assay concerns normal men. The settings on record: six normal men; Morse et al., J. Clin. Endocrinol. Metab. 37, 882 (1973); cited from earlier work.

Take `CO[C@H]1CC[C@H]2[C@@H]3CC[C@H]4C[C@@H]5S[C@@H]5C[C@]4(C)[C@H]3CC[C@]12C` [2α,3α-epithio-17β-methoxy-5α-androstane]: the “fertilization of a fertile female following sexual intercourse” value in assay [1] (Example 3: 70 one-half teaspoonful/day of elixir (100 mg./ml.), after 60 days) is given as “does not fertilize”. The “fertility on continued administration” value in assay [1] (Example 3: continued daily elixir) was “remains infertile”.

As to `C[C@@H]1C[C@@]2(C)C(=CC1=O)C[C@@H](C)[C@H]1[C@@H]3CC[C@H](O)[C@@]3(C)CC[C@@H]12` [2α,7α-dimethyltestosterone], in assay [2], the ABP/AR ratio result was “about 6.0”.

As for `CCO[C@H]1CC[C@H]2[C@@H]3CC[C@H]4C[C@@H]5S[C@@H]5C[C@]4(C)[C@H]3CC[C@]12C` [2α,3α-epithio-17β-ethoxy-5α-androstane], the “fertilization of a fertile female following sexual intercourse” value in assay [1] (Example 5: 60 one teaspoonful daily of suspension (100 mg./ml.), after 60 days) is recorded as “does not fertilize”. Moreover, the “fertility on further administration” value in assay [1] (Example 5: further administration) is “remains infertile”.

For `CO[C@H]1CC[C@H]2[C@@H]3CC[C@H]4CC(=O)[C@H](C)C[C@]4(C)[C@H]3CC[C@]12C` [17β-methoxy-2α-methyl-5α-androstan-3-one], the “fertilization of a fertile female following sexual intercourse” value in assay [1] (Example 1: 70 10 mg tablet twice daily for about 100 days) and in assay [1] (Example 2: 80 200 mg capsule four times daily for 60 days) was “does not fertilize” in each case. In addition, the “fertility on continued administration” value in assay [1] (Example 1: continued twice daily), in assay [1] (Example 2: continued 4 times daily) and in assay [1] (Example 4: continued daily) was “remains infertile” throughout. In the assay on tom (Example 6: 6 kg tom, treat with 20 mg daily, after 60 days), the “fertilization of an ovulating female at estrus following sexual intercourse” value is listed as “does not fertilize”. Besides, in the assay with tom (Example 6: continued daily treat), the “fertility on continuous daily administration” value is listed as “remains infertile”. Further, the “fertilization of the same ovulating female after cessation (reversibility)” value in the assay on tom (Example 6: eighty days following cessation of the treat) is on record as “fertilizes”.

On to `CCCCCCC(=O)O[C@H]1CC[C@H]2[C@@H]3CCC4=CC(=O)CC[C@]4(C)[C@H]3CC[C@]12C` [testosterone enanthate], for which the “effect on sperm in men who acknowledged paternity” value in the assay on men (Steinberger et al., Fertility and Sterility 27, 216 (1976)) is reported as “azoospermia”. In addition, the sperm count result in the assay with men (seven men, Mauss et al., Acta. Endocrinol. 78, 373 (1975)) is on record as “less than 3,000,000 sperm/ml”.

Consider `CCC(=O)O[C@H]1CC[C@H]2[C@@H]3CCC4=CC(=O)CC[C@]4(C)[C@H]3CC[C@]12C` [testosterone propionate], for which, in the assay on normal men, the sperm concentration entry was “sharp drop” and the testicular testosterone entry is given as “decrease”.
